Series [1] has as its system C. glabrata ATCC 15126. It is filed as cell-based, Candida glabrata. As to conditions: ATCC 15126, 24 h. The protocol:
(§1) The Acinetobacter baumannii ATCC BAA-1605, Enterococcus faecium ATCC 700221, Klebsiella aerogenes ATCC 13048, Klebsiella pneumoniae ATCC 700603, Pseudomonas aeruginosa ATCC 9027, Staphylococcus aureus ATCC 33591, Candida glabrata ATCC 15126 strains were acquired from the American Type Culture Collection (ATCC, Manassas, USA). All the strains were stored at −80 °C in Roti-Store cryo vials (Carl Roth GmbH, Germany) and before the tests were transferred into fresh Mueller–Hinton broth (MHB, Becton Dickinson, Poland) for bacteria or RPMI-1640 (Sigma-Aldrich, Germany) for fungi and incubated for 24 h at 37 °C. Then, the cultures were cultured on the Mueller–Hinton agar (BioMaxima, Poland) or Sabouraud dextrose agar (SDA, BioMaxima) plates, respectively, and incubated as just mentioned. For microbiological assays, a minimum of three to five well-isolated colonies of the same morphological type were carefully picked from the agar cultures. These colonies were transferred with sterile loop into fresh microbiological medium and incubated with shaking (100 rpm) at 37 °C until they reached logarithmic phase of growth. Cell densities for all assays were adjusted through spectrophotometric measurements (Multiskan GO Microplate Spectrophotometer, Thermo Fisher Scientific, Finland) at 600 and 530 nm for bacteria and fungi, respectively.
(§2) The MICs were determined by broth microdilution method according to the Clinical and Laboratory Standard Institute guidelines. For this purpose, initial inoculums of bacteria (5 × 10^5 CFU/mL) in MHB and yeasts (2 × 10^3 CFU/mL) in RPMI-1640 with 2% D-glucose were exposed to the ranging concentration of lipopeptides (1–512 μg/mL) and incubated at 37 °C for 18 h and 24 h, respectively. The experiments were conducted on 96-well microtiter polystyrene plates (Kartell, Italy). The growth was assessed visually after incubation and the MIC was assumed as the lowest peptide concentration at which a noticeable growth of microorganisms was inhibited. Benzalkonium chloride (Sigma-Aldrich, Germany) was used as reference compound. All experiments were conducted in triplicate.

Series [2] concerns A. baumannii ATCC BAA 1605. It is filed as cell-based, Acinetobacter baumannii. As to conditions: ATCC BAA 1605, 18 h. The protocol:
as §1, §2

Series [3] deals with human keratinocyte cell line (HaCaT). It is filed as cell-based. To be noted: 24 h. The protocol: The immortalized human keratinocyte cell line (HaCaT), obtained from CLS (Cell Line Service, Germany) was cultured in DMEM-high glucose (Dulbecco’s Modified Eagle Medium) supplemented with 10% fetal bovine serum, 2 mM L-glutamine, 100 U/mL penicillin and 100 μg/mL streptomycin (Sigma-Aldrich; Merck KGaA) at 37 °C in a humidified atmosphere with 5% CO2. Cells were trypsinized, and the medium was renewed 2–3 times per week. The cytotoxicity of compounds was assessed by colorimetric CellTilter 96® Aqueous One Solution Cell Proliferation Assay (Promega, USA), containing a tetrazolium compound according to the manufacturer’s instructions. In brief, 7 × 10^3 HaCaT cells per well were plated on 96-well plates and incubated per night to adhere to the cultured dishes. After that time, different concentrations of the tested compounds ranging from 512 to 1 μg/mL were applied to the wells. Every compound was medium-soluble at 37 °C; thus, the non-treated cells were negative control. Serial dilutions of the tested compounds were always prepared before use. Cells were incubated with drugs for 24 h, and then, 20 μL of the CellTiter 96®AqueousOne Solution Reagent was added to each well containing treated cells in 100 µl of culture medium. After 4 h of incubation at 37 °C, the absorbance at 490 nm was recorded using a microplate reader (Epoch, BioTek Instruments, USA). The quantity of formazan product as measured by the amount of 490 nm absorbance is directly proportional to the number of living cells in culture. Benzalkonium chloride (Sigma-Aldrich, Germany) was used as reference compound. At least three independent experiments with two replicates were conducted for each concentration of a compound, and the IC50 values were calculated using GraphPad Prism 8 software.

Series [4] concerns K. aerogenes ATCC 13048. The format is cell-based, Klebsiella aerogenes. To be noted: ATCC 13048, 18 h. On the procedure:
as §1, §2

Series [5] concerns K. pneumoniae ATCC 700603. The format is cell-based, Klebsiella pneumoniae. As to conditions: ATCC 700603, 18 h. On the procedure:
as §1, §2

The subject of series [6] is human red blood cells (RBCs). It is filed as cell-based. As to conditions: red cells of human. On the procedure:
The hemolysis assay was conducted using a procedure described previously. For this purpose, human red blood cells (RBCs) isolated from K2EDTA Single Donor Human Whole blood (Innovative Research, Inc, MI, USA) were rinsed with Phosphate-buffer saline (PBS, pH 7.4±0.05, composition - KCl 2.7 mM, NaCl 140 mM, phosphate 10mM; AppliChem GmbH, Germany) by centrifugation for 10 min at 800 × g. This process was repeated 3 times and the RBCs were resuspended in PBS. Then, the stock solution of RBCs was added to the serial dilution of lipopeptides on 96-well polystyrene plates to reach a final volume of 100 μL with a 4% concentration of erythrocytes (v/v) and a concentration range of 1-512 μg/mL of tested compounds. The control wells for 0% and 100% hemolysis consisted of RBCs suspended in PBS and 1% of Triton X-100 (Sigma-Aldrich, Germany), respectively. Benzalkonium chloride (Sigma-Aldrich, Germany) was used as reference compound. Subsequently, the plates were incubated for 60 min at 37 °C and then centrifuged at 800 × g for 10 min at 4 °C (Sorvall ST […] Centrifuge, Thermo Scientific). The supernatant was carefully […] to new microtiter plates. The release of hemoglobin was monitored absorbance measurements at 540 nm (MultiskanTM GO Microplate Spectrophotometer, Thermo Scientific). All experiments were conducted in triplicate. HC50 was calculated using an ic50.tk tool.

Series [7] deals with P. aeruginosa ATCC 9027. It is filed as cell-based, Pseudomonas aeruginosa. As to conditions: ATCC 9027, 18 h. The protocol: as §1, §2
The test system of series [8] is S. aureus ATCC 33591. The format is cell-based, Staphylococcus aureus. As to conditions: ATCC 33591, 18 h. The protocol: as §1, §2
Series [9] has as its system E. faecium ATCC 700221. The format is cell-based, Enterococcus faecium. To be noted: ATCC 700221, 18 h. On the procedure:
as §1, §2

The conditions of series [10]: cited from earlier work.
Series [11] deals with S. aureus. More on the design: method as in PMID 20374251. As to conditions: against S. aureus ref 5; cited from earlier work.
Series [12] relates to human keratinocytes. More on the design: method as in PMID 33003569. To be noted: toxicity towards human keratinocytes ref 3; in µg/mL; cited from earlier work.

The values that follow come from paper PMC10687119, “Quaternary Ammonium Salts of Cationic Lipopeptides with Lysine Residues — Synthesis, Antimicrobial, Hemolytic and Cytotoxic Activities” (Probiotics and Antimicrobial Proteins, 2023).

Converted amounts (≈) assume the structure as drawn. Where a SMILES comes first, the peptide text is derived from it. [ ]: non-standard residue; d: D form. The star is where a group is joined. Lys(Me3) = C[N+](C)(C)CCCC[C@H](N)C(=O)O; Stearoyl = CCCCCCCCCCCCCCCCCC(=O)*; Palmitoyl = CCCCCCCCCCCCCCCC(=O)*; Myristoyl = CCCCCCCCCCCCCC(=O)*

One may read the MIC as the smallest concentration in the dilution series that meets the test's criterion for growth inhibition. Broadly, the HC50 is the concentration that lyses half of the red blood cells. A high value points to weaker haemolysis. Regarding `CCCCCCCCCCCCCC(=O)N[C@@H](CCCCN)C(=O)N[C@@H](CCCCN)C(=O)N[C@@H](CCCCN)C(=O)N[C@@H](CCCCN)C(N)=O` [Peptide 4M, C14-KKKK-NH2] (Myristoyl-KKKK-NH2), the MIC in series [1] is on record as 512 µg/mL (≈ 692 µM); in [2], 512 µg/mL (≈ 692 µM); in series [4] it was 256 µg/mL (≈ 346 µM); in [5] it was greater than 512 µg/mL; in series [7], 256 µg/mL (≈ 346 µM); in series [8], 32 µg/mL (≈ 43.2 µM). This molecule came in with an MIC in series [9] of 16 µg/mL (≈ 21.6 µM). Moreover, the IC50 in series [3] amounted to 252.20 ± 36.68 µg/mL (≈ 341 µM). The molecule also registered a 50% haemolytic concentration (HC50) in [6] greater than 512 µg/mL.
With `CCCCCCCCCCCCCC(=O)N[C@@H](CCCC[N+](C)(C)C)C(=O)N[C@@H](CCCC[N+](C)(C)C)C(=O)N[C@@H](CCCC[N+](C)(C)C)C(=O)N[C@@H](CCCC[N+](C)(C)C)C(N)=O` [Peptide 4Mq, C14-K(Me3)^+K(Me3)^+K(Me3)^+K(Me3)^+-NH2] (Myristoyl-[Lys(Me3)][Lys(Me3)][Lys(Me3)][Lys(Me3)]-NH2), the minimal inhibitory concentration (MIC) in series [1], in series [2], in [4], in series [5], in series [7] and in series [8] was greater than 512 µg/mL throughout. The molecule further came in with a minimum inhibitory concentration (MIC) in series [9] of 128 µg/mL. Besides, the IC50 in [3] is reported as greater than 512 µg/mL. The molecule further showed a concentration for 50% haemolysis (HC50) in [6] greater than 512 µg/mL.
On to `CCCCCCCCCCCCCCCC(=O)N[C@@H](CCCC[N+](C)(C)C)C(=O)N[C@@H](CCCC[N+](C)(C)C)C(=O)N[C@@H](CCCC[N+](C)(C)C)C(=O)N[C@@H](CCCC[N+](C)(C)C)C(N)=O` [Peptide 4Pq, C16-K(Me3)^+K(Me3)^+K(Me3)^+K(Me3)^+-NH2] (Palmitoyl-[Lys(Me3)][Lys(Me3)][Lys(Me3)][Lys(Me3)]-NH2), for which the MIC in [1] is given as greater than 512 µg/mL; in series [2], greater than 512 µg/mL; in series [4], 512 µg/mL; in series [5] it was greater than 512 µg/mL; in [7] it was greater than 512 µg/mL; in series [8], 512 µg/mL. Further, the MIC in [9] was 32 µg/mL. In [3], this molecule yielded an IC50 greater than 512 µg/mL. Also, in [6], the HC50 is listed as greater than 512 µg/mL.
Regarding `CCCCCCCCCCCCCCCCCC(=O)N[C@@H](CCCC[N+](C)(C)C)C(=O)N[C@@H](CCCC[N+](C)(C)C)C(=O)N[C@@H](CCCC[N+](C)(C)C)C(=O)N[C@@H](CCCC[N+](C)(C)C)C(N)=O` [Peptide 4Sq, C18-K(Me3)^+K(Me3)^+K(Me3)^+K(Me3)^+-NH2] (Stearoyl-[Lys(Me3)][Lys(Me3)][Lys(Me3)][Lys(Me3)]-NH2), the MIC in series [1] was determined as 512 µg/mL; in series [2], 256 µg/mL; in series [4], 64 µg/mL; in series [5], 256 µg/mL; in [7], 512 µg/mL; in series [8], 64 µg/mL. In [9], this molecule registered a minimal inhibitory concentration (MIC) of 16 µg/mL. In addition, in series [3], the IC50 is listed as greater than 512 µg/mL. Moreover, the concentration for 50% haemolysis (HC50) in series [6] is given as greater than 512 µg/mL.
As to `C[N+](C)(C)CC(=O)O` [betaine, N,N,N-trimethylglycine], the solubility in water in series [10] is reported as 611 g/L.
For the molecule C12-Orn-Orn-Trp-Trp-NH2, in [11], the MIC is 0.95 to 1.95 µg/mL.
On to C16-CRRKKC-NH2, for which the IC50 in series [12] was 21.3 ± 8.2.
Turning to C16-RRKK-NH2 [Peptide C16-RRKK-NH2], the IC50 in series [12] was 8.1 ± 1.1.
